Measurements: article PMC6019134, “1,2,6-Thiadiazinones as Novel Narrow Spectrum Calcium/Calmodulin-Dependent Protein Kinase Kinase 2 (CaMKK2) Inhibitors” (Molecules : A Journal of Synthetic Chemistry and Natural …, 2018)
Where “and” joins values, the source holds several entries; their conditions need not be identical. Identical values can stand only once.

What was measured:
[1] = target: T1, CAMKK2 kinase domain (132–470) (Homo sapiens, UniProt Q96RR4); test: CaMKK2B TR-FRET tracer displacement assay; assay type: binding; conditions: for IC50 / FRET (IC50): CaMKK2, displacement of tracer 236, average of 2 experiments; for increase in potency over compound 2: CaMKK2 FRET IC50 relative to compound 2
T1 construct: CAMKK2 kinase domain (132–470) was cloned in a pNIC-Bio2 vector; 10xHis tag followed by a TEV site (N, cleaved yes); made in house; host or cells: E. coli BL21(DE3)-R3-BirA
Text: To more accurately determine the relative changes in potency of the TDZ analogues and to enable measurement of accurate IC50^’s, we developed a Time-Resolved Fluorescence Resonance Energy Transfer (TR-FRET) assay. The TR-FRET tracer displacement assays were generated using a protocol derived from the Lanthascreen binding assays (ThermoFisher Scientific, Waltham, MA, USA) [21].

[2] = Chemical stability of the dianilinothiadiazinone core (TLC); assay type: physicochemical; conditions: 48 h; neutral, acidic (HCl 2 M) or pH 9 aqueous conditions, BuNH2, PhNH2, PhSH, DDQ, Sn
Protocol: After the synthesis of the desired dianilino-TDZs (1–5), the stability of dianilinothiadiazinone in biological systems was assessed: 3,5-bis(phenylamino)-4H-1,2,6-thiadiazin-4-one (9) was subjected to neutral, acidic or slightly basic aqueous conditions (H2O/DMSO 50:50, THF/HCl 2 M 50:50 or THF/H2O 50:50 at pH 9 with a carbonate buffer), presence of amine or thiol nucleophiles (BuNH2 1 equiv., PhNH2 1 equiv., PhSH 1 equiv.), oxidizing [2,3-dichloro-5,6-dicyano-1,4-benzoquinone (DDQ) 2 equiv.] and reducing conditions (Sn, 2 equiv.).

[3] = target: T2, human CaMKK2 (residues 50–588) (Homo sapiens, UniProt Q96RR4); test: CaMKK2 enzyme assay ([γ-32P]-ATP, CaMKKtide peptide); assay type: biochemical; conditions: for IC50: 50 μM ATP, 7 concentrations, mean of 2 experiments;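 for all read-outs here: radiometric kinase assay: phosphate transfer from [γ-32P]-ATP to synthetic peptide substrate, 10 min reaction at 30 °C, peptide-bound radioactivity captured on P81 paper and measured by scintillation counting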
T2 construct: recombinant bacterial expressed human CaMKK2 (residues 50–588); made in house
Protocol: CaMKK2 activity was measured by determining the rate of transfer of radiolabeled phosphate from [γ-^32P]-ATP to a synthetic peptide substrate [22].
A standard 30 μL assay, 1 ng of recombinant bacterial expressed human CaMKK2 (residues 50–588) was added to assay buffer (50 mM HEPES [pH 7.4], 1 mM DTT, 0.02% (v/v) Brij-35) containing 200 μM CaMKKtide peptide substrate, 50 μM CaCl2, 1 μM calmodulin (Sigma-Aldrich Corp., St. Louis, MO, USA), 50 μM [γ-^32P]-ATP (Perkin Elmer) and 5 mM MgCl2, in the presence and absence of different concentrations of small-molecule inhibitors. Reactions were incubated for 10 min at 30 °C, after which they were terminated by spotting 15 μL onto P81 phosphocellulose paper (Whatman, GE Healthcare, Chicago, IL, USA) and washing extensively in 1% phosphoric acid. Radioactivity was quantified by scintillation counting.

[4] = system: kinases including ERK8, MNK1 and PIM3; set-up: method as in PMID 17519230, PMID 12540834; conditions: cited from earlier work
[5] = set-up: method as in PMID 17519230, PMID 12540834; conditions: cited from earlier work
[6] = system: arylhydrocarbon receptor (AhR); set-up: method as in PMID 18755850; conditions: cited from earlier work

T1 sequence (Q96RR4 132-470): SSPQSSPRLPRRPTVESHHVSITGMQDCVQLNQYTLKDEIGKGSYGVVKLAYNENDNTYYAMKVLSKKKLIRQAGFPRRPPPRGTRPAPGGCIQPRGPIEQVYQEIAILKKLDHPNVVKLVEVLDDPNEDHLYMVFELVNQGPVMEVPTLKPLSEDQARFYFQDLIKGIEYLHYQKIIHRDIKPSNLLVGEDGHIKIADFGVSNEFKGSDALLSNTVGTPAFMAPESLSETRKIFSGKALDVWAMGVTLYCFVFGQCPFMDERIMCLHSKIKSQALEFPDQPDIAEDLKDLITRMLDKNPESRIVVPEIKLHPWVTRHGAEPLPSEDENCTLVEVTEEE

Row | Compound | IC50 [1] | melting point | Enzyme assay raw data (0 μM drug = 100.00) ([3]; [drug] 0.001 μM) | Enzyme assay raw data (0 μM drug = 100.00) ([3]; [drug] 0.01 μM) | Enzyme assay raw data (0 μM drug = 100.00) ([3]; [drug] 0.1 μM) | Enzyme assay raw data (0 μM drug = 100.00) ([3]; [drug] 1 μM) | Enzyme assay raw data (0 μM drug = 100.00) ([3]; [drug] 10 μM) | Enzyme assay raw data (0 μM drug = 100.00) ([3]; [drug] 100 μM) | also measured
1 | O=c1c(Nc2ccccc2)nsnc1Nc1ccccc1 [Compound 9, 3,5-bis(phenylamino)-4H-1,2,6-thiadiazin-4-one] |  |  |  |  |  |  |  |  | stability (by TLC) [2]: stable
2 | Cc1ccc(Nc2nsnc(Nc3cccc(C(F)(F)F)c3CO)c2=O)cc1O [Compound 18, 3-[(3-Hydroxy-4-methylphenyl)amino]-5-{[2-(hydroxymethyl)-3-(trifluoromethyl)phenyl]amino}-4H-1,2,6-thiadiazin-4-one] | > 50 µM |  |  |  |  |  |  |  | FRET (IC50) [1]: effectively inactive
3 | Cc1ccc(Nc2nsnc(Nc3ccccc3CO)c2=O)cc1O [Compound 17, 3-[(3-Hydroxy-4-methylphenyl)amino]-5-{[2-(hydroxymethyl)phenyl]amino}-4H-1,2,6-thiadiazin-4-one] | > 50 µM |  |  |  |  |  |  |  | FRET (IC50) [1]: effectively inactive
4 | Cc1ccc(Nc2nsnc(Nc3ccc(C#N)cc3)c2=O)cc1O [Compound 15, 4-({5-[(3-Hydroxy-4-methylphenyl)amino]-4-oxo-4H-1,2,6-thiadiazin-3-yl}amino)benzonitrile] | > 50 µM | 280 °C (dec.) |  |  |  |  |  |  | 
5 | O=C(O)c1ccc2c3c1cccc3c(=O)n1c3ccccc3nc21 [STO-609, 7-oxo-7H-benzimidazo[2,1-a]benz[de]isoquinoline-3-carboxylic acid, reference compound] |  |  | 88.33 | 69.88 | 42.21 | 4.64 | 1.89 | 0.07 | off-target kinome profile [4]: unfavorable off-target kinome profile; solubility [5]: poor solubility; activity on arylhydrocarbon receptor (AhR) [6]: agonist
6 | 4-({5-[(3-Hydroxy-4-methylphenyl)amino]-4-oxo-4H-1,2,6-thiadiazin-3-yl}(oxazol-4-ylmethyl)amino)-benzamide [Compound 16] | > 50 µM |  |  |  |  |  |  |  | 

Further lines, with some results ahead:

Row | IC50 [1] | melting point | Enzyme assay raw data (0 μM drug = 100.00) ([3]; [drug] 0.001 μM) | Enzyme assay raw data (0 μM drug = 100.00) ([3]; [drug] 0.01 μM) | Enzyme assay raw data (0 μM drug = 100.00) ([3]; [drug] 0.1 μM) | Enzyme assay raw data (0 μM drug = 100.00) ([3]; [drug] 1 μM) | Enzyme assay raw data (0 μM drug = 100.00) ([3]; [drug] 10 μM) | Enzyme assay raw data (0 μM drug = 100.00) ([3]; [drug] 100 μM) | Compound | also measured
7 | > 50 µM | 258 to 259 °C |  |  |  |  |  |  | Cc1ccc(Nc2nsnc(Nc3cccc(C#N)c3)c2=O)cc1O [Compound 14, 3-({5-[(3-Hydroxy-4-methylphenyl)amino]-4-oxo-4H-1,2,6-thiadiazin-3-yl}amino)benzonitrile] | 
8 | 38 µM | 277 to 278 °C |  |  |  |  |  |  | Cc1ccc(Nc2nsnc(-c3ccc(C(=O)O)c(C4CCCC4)c3)c2=O)cc1O [Compound 19, 2-Cyclopentyl-4-{5-[(3-hydroxy-4-methylphenyl)amino]-4-oxo-4H-1,2,6-thiadiazin-3-yl}-benzoic acid] | 
9 | 3.2 µM |  | 98.56 | 93.09 | 84.85 | 79.37 | 42.11 | 1.23 | Cc1ccc(Nc2nsnc(Nc3ccc(-c4ncc[nH]4)cc3)c2=O)cc1O [Compound 11, 3-{[4-(1H-Imidazol-2-yl)phenyl]amino}-5-[(3-hydroxy-4-methylphenyl)amino]-4H-1,2,6-thiadiazin-4-one] | IC50 [3]: 6.51 µM and 6.5 µM; increase in potency over compound 2 [1]: > 15 fold
10 | 43 µM | 229 to 230 °C |  |  |  |  |  |  | Cc1ccc(Nc2nsnc(Nc3ccccc3C#N)c2=O)cc1O [Compound 13, 2-({5-[(3-Hydroxy-4-methylphenyl)amino]-4-oxo-4H-1,2,6-thiadiazin-3-yl}amino)benzonitrile] | 
11 | 10.5 µM |  | 102.38 | 95.03 | 89.54 | 79.70 | 28.43 | 0.83 | Cc1ccc(Nc2nsnc(Nc3ccc(C(=O)O)cc3)c2=O)cc1O [Compound 12, 4-({5-[(3-Hydroxy-4-methylphenyl)amino]-4-oxo-4H-1,2,6-thiadiazin-3-yl}amino)benzoic acid] | IC50 [3]: 4.09 µM and 4.1 µM; increase in potency over compound 2 [1]: > 5 fold
12 | 7.8 µM |  | 102.30 | 98.48 | 91.02 | 85.36 | 52.53 | 2.19 | Cc1ccc(Nc2nsnc(Nc3ccccc3C(N)=O)c2=O)cc1O [Compound 10, 2-({5-[(3-Hydroxy-4-methylphenyl)amino]-4-oxo-4H-1,2,6-thiadiazin-3-yl}amino)benzamide] | IC50 [3]: 11.9 µM; increase in potency over compound 2 [1]: > 8 fold
